Among the data in BindingDB's records for PubMed 8632757 (Merck Sharp & Dohme Research Laboratories, 1996) are Ki values, retold here.

Molecules are shown by their SMILES.

The target of assay [1] is Gamma-aminobutyric acid receptor subunit alpha-6 (Homo sapiens, UniProt Q16445).
The target in assay [2] is T1, Gamma-aminobutyric acid receptor subunit alpha-1 (Homo sapiens, UniProt P14867).
T1 sequence (P14867 whole entry): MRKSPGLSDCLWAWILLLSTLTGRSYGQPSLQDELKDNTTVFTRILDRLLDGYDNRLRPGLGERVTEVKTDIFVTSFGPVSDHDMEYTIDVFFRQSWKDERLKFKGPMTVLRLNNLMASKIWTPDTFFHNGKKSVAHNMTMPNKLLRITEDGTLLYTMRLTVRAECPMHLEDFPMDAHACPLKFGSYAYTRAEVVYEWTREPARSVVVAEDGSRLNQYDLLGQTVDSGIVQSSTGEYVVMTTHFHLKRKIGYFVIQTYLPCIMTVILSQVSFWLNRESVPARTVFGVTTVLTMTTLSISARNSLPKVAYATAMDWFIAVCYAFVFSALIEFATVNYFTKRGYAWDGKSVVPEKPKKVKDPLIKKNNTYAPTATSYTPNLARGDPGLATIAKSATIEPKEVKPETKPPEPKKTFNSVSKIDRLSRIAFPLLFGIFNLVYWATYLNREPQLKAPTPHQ

Chain of Gamma-aminobutyric acid receptor subunit alpha-6 (Q16445 whole entry): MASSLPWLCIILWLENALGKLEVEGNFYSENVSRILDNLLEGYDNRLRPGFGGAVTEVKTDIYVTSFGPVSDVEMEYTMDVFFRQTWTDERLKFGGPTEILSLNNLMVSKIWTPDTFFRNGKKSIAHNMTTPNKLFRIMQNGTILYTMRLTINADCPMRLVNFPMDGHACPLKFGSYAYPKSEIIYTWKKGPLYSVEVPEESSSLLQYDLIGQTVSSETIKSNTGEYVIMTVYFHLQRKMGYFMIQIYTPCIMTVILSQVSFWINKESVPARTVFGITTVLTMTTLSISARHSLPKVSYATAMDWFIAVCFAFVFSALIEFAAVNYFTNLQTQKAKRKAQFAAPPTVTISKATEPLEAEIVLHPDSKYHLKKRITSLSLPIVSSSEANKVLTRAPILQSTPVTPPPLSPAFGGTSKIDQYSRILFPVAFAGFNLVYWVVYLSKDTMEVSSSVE

Take `Cc1nnc2ccc(-c3cccc(C(F)(F)F)c3)nn12`: the Ki in assay [1] is above 10000 nM; in assay [2], 89.5 nM.
Regarding `CC(C)(C)OC(=O)c1ncn2c1C1CCCN1C(=O)c1c(Br)cccc1-2` (stereo not drawn) [8-Bromo-7-oxo-3b,4,5,6-tetrahydro-7H-2,6a,11b-triaza-benzo[g]cyclopenta[e]azulene-3-carboxylic acid tert-butyl ester], the affinity in assay [1] corresponds to a Ki of 12.7 nM.
As for `CCc1c(C(=O)OC)ncc2[nH]c3cc(OC)c(OC)cc3c12` [NSC_104999], the Ki in assay [1] was 134 nM; in assay [2], 11.2 nM.
`Cc1nnc2n1-c1ccc(Cl)cc1C(c1ccccc1Cl)=NC2` [Halcion] yielded a Ki in assay [1] above 10000 nM.
`CCOC(=O)c1ncn2c1CN(C)C(=O)c1cc(N=[N+]=[N-])ccc1-2` [RO-154513]: the Ki in assay [2] was found to be 2.6 nM. This counts as single-digit nanomolar.
For `COC(=O)c1cc2c(cn1)[nH]c1ccccc12`, the Ki in assay [1] was determined as 2050 nM; in assay [2], 1 nM.
With `CN1C(=O)CN=C(c2ccccc2)c2cc(Cl)ccc21`, the inhibition constant Ki in assay [1] was above 10000 nM.
As to `Cc1ccc(-c2nc3ccc(C)cn3c2CC(=O)N(C)C)cc1` [Ambien], in assay [1], the Ki is above 10000 nM.
Consider `CC(C)c1nc(-c2ncn3c2CN(C)C(=O)c2c(Cl)cccc2-3)no1` [FG 8205], for which the Ki worked out at 227 nM in assay [1] and 0.68 nM in assay [2].

Usually Ki stands for the dissociation constant of the complex between target and ligand, obtained from inhibition or displacement.
